Data as given in PubChem BioAssay (NCI).
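Dose response: 5 concentrations. Exposure: 48 h. Format: 96-well plates. Endpoint: linear interpolation; highest concentration if not reached. GI50 = concentration required for 50% inhibition of growth. TGI: total growth inhibition.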

Key:
Test in all cases: growth of human tumour cells (NCI), 48 h
OVCAR-8 ovarian = system: OVCAR-8 ovarian
NCI/ADR-RES ovarian = system: NCI/ADR-RES ovarian
A498 renal = system: A498 renal
OVCAR-3 ovarian = system: OVCAR-3 ovarian
RPMI-8226 leukemia = system: RPMI-8226 leukemia
CCRF-CEM leukemia = system: CCRF-CEM leukemia
HOP-62 NSCLC = system: HOP-62 NSCLC
NCI-H460 lung = system: NCI-H460 lung
HS 578T breast = system: HS 578T breast
SNB-19 CNS = system: SNB-19 CNS
K-562 leukemia = system: K-562 leukemia
M14 melanoma = system: M14 melanoma
NCI-H226 lung = system: NCI-H226 lung
OVCAR-4 ovarian = system: OVCAR-4 ovarian
HCT-116 colon = system: HCT-116 colon
TK-10 renal = system: TK-10 renal
EKVX NSCLC = system: EKVX NSCLC
SK-MEL-28 melanoma = system: SK-MEL-28 melanoma
HOP-92 NSCLC = system: HOP-92 NSCLC
HT29 colon = system: HT29 colon
SF-295 CNS = system: SF-295 CNS
NCI-H23 lung = system: NCI-H23 lung
MALME-3M melanoma = system: MALME-3M melanoma
786-0 renal = system: 786-0 renal
ACHN renal = system: ACHN renal
IGROV1 ovarian = system: IGROV1 ovarian
DU-145 prostate = system: DU-145 prostate
LOX IMVI melanoma = system: LOX IMVI melanoma
MOLT-4 leukemia = system: MOLT-4 leukemia
SK-MEL-5 melanoma = system: SK-MEL-5 melanoma
UACC-257 melanoma = system: UACC-257 melanoma
SR leukemia = system: SR leukemia
SW-620 colon = system: SW-620 colon
OVCAR-5 ovarian = system: OVCAR-5 ovarian
MDA-MB-435 = system: MDA-MB-435
HCT-15 colon = system: HCT-15 colon
CAKI-1 renal = system: CAKI-1 renal
KM12 colon = system: KM12 colon
COLO 205 colon = system: COLO 205 colon
PC-3 prostate = system: PC-3 prostate
SK-OV-3 ovarian = system: SK-OV-3 ovarian
HL-60(TB) leukemia = system: HL-60(TB) leukemia

With `COc1ccc(C[C@H]2COC(=O)[C@@H]2Cc2ccc(O)cc2)cc1OC` the TGI (OVCAR-8 ovarian) was greater than 100 µM, the TGI (NCI/ADR-RES ovarian) was greater than 100 µM and the TGI (A498 renal) was greater than 100 µM. For the same molecule, the TGI (OVCAR-3 ovarian) was greater than 100 µM, the TGI (RPMI-8226 leukemia) was greater than 100 µM and the TGI (CCRF-CEM leukemia) was greater than 100 µM. For the same molecule, the TGI (HOP-62 NSCLC) was greater than 100 µM, the TGI (NCI-H460 lung) was greater than 100 µM and the TGI (HS 578T breast) was greater than 100 µM. It also gave a TGI (SNB-19 CNS) greater than 100 µM, a TGI (K-562 leukemia) greater than 100 µM and a TGI (M14 melanoma) greater than 100 µM. It also gave a TGI (NCI-H226 lung) greater than 100 µM, a TGI (OVCAR-4 ovarian) greater than 100 µM and a TGI (HCT-116 colon) greater than 100 µM. For the same molecule, the TGI (TK-10 renal) was greater than 100 µM, the TGI (EKVX NSCLC) was greater than 100 µM and the TGI (SK-MEL-28 melanoma) was greater than 100 µM. The TGI (HOP-92 NSCLC) was greater than 100 µM, the TGI (HT29 colon) was greater than 100 µM and the TGI (SF-295 CNS) was greater than 100 µM. It also gave a TGI (NCI-H23 lung) greater than 100 µM, a TGI (MALME-3M melanoma) greater than 100 µM and a TGI (786-0 renal) greater than 100 µM. For the same molecule, the TGI (ACHN renal) was greater than 100 µM, the TGI (IGROV1 ovarian) was greater than 100 µM and the TGI (DU-145 prostate) was greater than 100 µM. For the same molecule, the TGI (LOX IMVI melanoma) was greater than 100 µM, the TGI (MOLT-4 leukemia) was greater than 100 µM and the TGI (SK-MEL-5 melanoma) was greater than 100 µM. The TGI (UACC-257 melanoma) was greater than 100 µM, the TGI (SR leukemia) was greater than 100 µM and the TGI (SW-620 colon) was greater than 100 µM. It also gave a TGI (OVCAR-5 ovarian) greater than 100 µM.
`CCN(CC)Cc1cc(Nc2ccnc3cc(Cl)ccc23)cc(-c2ccc(Cl)cc2)c1O` gave a GI50 (MDA-MB-435) of 0.989 µM, a TGI (MDA-MB-435) greater than 100 µM and a GI50 (HCT-15 colon) of 0.577 µM. The TGI (HCT-15 colon) was greater than 100 µM, the GI50 (CCRF-CEM leukemia) was 0.999 µM and the TGI (CCRF-CEM leukemia) was greater than 100 µM. The GI50 (CAKI-1 renal) was 0.907 µM, the TGI (CAKI-1 renal) was greater than 100 µM and the GI50 (EKVX NSCLC) was 0.879 µM. The TGI (EKVX NSCLC) was greater than 100 µM, the GI50 (KM12 colon) was 3.08 µM and the TGI (KM12 colon) was greater than 100 µM. It also gave a GI50 (HOP-92 NSCLC) of 0.434 µM, a TGI (HOP-92 NSCLC) of 3.2 µM and a GI50 (HT29 colon) of 1.88 µM. It also gave a TGI (HT29 colon) greater than 100 µM, a GI50 (SF-295 CNS) of 1.39 µM and a TGI (SF-295 CNS) greater than 100 µM. For the same molecule, the GI50 (NCI-H23 lung) was 0.704 µM, the TGI (NCI-H23 lung) was greater than 100 µM and the GI50 (COLO 205 colon) was 3.05 µM. It also gave a TGI (COLO 205 colon) greater than 100 µM, a GI50 (786-0 renal) of 1.84 µM and a TGI (786-0 renal) greater than 100 µM. It also gave a GI50 (PC-3 prostate) of 0.771 µM, a TGI (PC-3 prostate) greater than 100 µM and a GI50 (MOLT-4 leukemia) of 0.485 µM. It also gave a TGI (MOLT-4 leukemia) greater than 100 µM, a GI50 (UACC-257 melanoma) of 1.29 µM and a TGI (UACC-257 melanoma) of 4.85 µM. The GI50 (SK-OV-3 ovarian) was 3.89 µM, the TGI (SK-OV-3 ovarian) was greater than 100 µM and the GI50 (SW-620 colon) was 0.628 µM. The TGI (SW-620 colon) was greater than 100 µM.
`COc1ccc2[nH]cc(/C=C3/C(=O)Nc4ccc(Cl)cc43)c2c1` gave a GI50 (A498 renal) greater than 100 µM, a TGI (A498 renal) greater than 100 µM and a GI50 (CCRF-CEM leukemia) of 5.97 µM. For the same molecule, the TGI (CCRF-CEM leukemia) was greater than 100 µM, the GI50 (KM12 colon) was 0.352 µM and the TGI (KM12 colon) was greater than 100 µM. The GI50 (MOLT-4 leukemia) was greater than 100 µM, the TGI (MOLT-4 leukemia) was greater than 100 µM and the GI50 (HL-60(TB) leukemia) was greater than 100 µM. For the same molecule, the TGI (HL-60(TB) leukemia) was greater than 100 µM, the GI50 (OVCAR-5 ovarian) was greater than 100 µM and the TGI (OVCAR-5 ovarian) was greater than 100 µM.
